This note sets out measurements from publication PMC3418399 (Molecular microbiology, 2012).

Starred links: 1 amine or outer side, 2 acyl side, 3 side chain; linkers in the order of their positions; H or OH if unused. Positions of bridges follow the written chain, without caps; N, C: chain ends. Non-standard residues stand in square brackets, D forms with d. Residues, ends and D or L forms follow the SMILES beside them. *: point of attachment. hTyr(3S-OH,4S-OH,3'-OSO3H) = N[C@H](C(=O)O)[C@H](O)[C@@H](O)c1ccc(O)c(OS(=O)(=O)O)c1; Orn(4R-OH,5R-OH) = O=C([C@H](C[C@@H](O)[C@@H](O)N[*:3])N[*:1])[*:2]; Pro(3S-OH,4S-Me) = C[C@H]1CN[C@H](C(=O)O)[C@H]1O; X1 = CCCCCOc1ccc(-c2cc(-c3ccc(C(=O)*)cc3)no2)cc1; Gln(3R-OH) = NC(=O)C[C@@H](O)[C@H](N)C(=O)O; Hyp = O=C(O)[C@@H]1C[C@@H](O)CN1

Some test systems named below: AD/pABC3 (Control); EL1/TM2 (CaCdr1p G547R); EL3 (CaCdr1p Q714K); EL4-1 (CaCdr1p Q1226K); EL4-2 (CaCdr1p Q1226R); EL6 (CaCdr1p Q1445R); TM5 (CaCdr1p V674F).
Holding throughout (assay): MIC, liquid microdilution
What all share (type): cell-based, Saccharomyces cerevisiae
Common to all, as to conditions: 48 h

In assay [1] the test system is AD/CDR1 (Wild type CaCdr1p).
The mark [2] stands for this setting: AD/pABC3, Control, milbemycins and micafungin, I95, CSM pH 7.0, 30°C.
[3] abbreviates: AD/CDR1, Wild type, milbemycins and micafungin, I95, CSM pH 7.0, 30°C.
[4] abbreviates: EL1/TM2, G547R, milbemycins and micafungin, I95, CSM pH 7.0, 30°C.
[5] abbreviates: EL3, Q714K, milbemycins and micafungin, I95, CSM pH 7.0, 30°C.
[6] abbreviates: EL4-1, Q1226K, milbemycins and micafungin, I95, CSM pH 7.0, 30°C.
Setting [7] is: EL4-2, Q1226R, milbemycins and micafungin, I95, CSM pH 7.0, 30°C.
[8] abbreviates: EL6, Q1445R, milbemycins and micafungin, I95, CSM pH 7.0, 30°C.
Where [9] appears, read: TM5, V674F, milbemycins and micafungin, I95, CSM pH 7.0, 30°C.

What is called MIC is the lowest concentration that inhibits growth of the organism. Higher therefore signals a less susceptible organism.

Consider `C[C@@H]1C[C@@H]([C@H](O)CC2CC(=O)NC(=O)C2)C(=O)[C@@H](C)C1` [Cycloheximide], for which the MIC in the assay on AD/pABC3 (Control) (Saccharomyces cerevisiae, pH 7) worked out at 0.008 µg/mL; in assay [1] (Saccharomyces cerevisiae, pH 7), 1 µg/mL; in the assay on EL1/TM2 (CaCdr1p G547R) (Saccharomyces cerevisiae, pH 7), 0.5 µg/mL; against EL3 (CaCdr1p Q714K) (Saccharomyces cerevisiae, pH 7) it was 1 µg/mL; against EL4-1 (CaCdr1p Q1226K) (Saccharomyces cerevisiae, pH 7) it was 0.5 µg/mL; against EL4-2 (CaCdr1p Q1226R) (Saccharomyces cerevisiae, pH 7) it was 1 µg/mL. For the same compound, the MIC against EL6 (CaCdr1p Q1445R) (Saccharomyces cerevisiae, pH 7) is 2 µg/mL; in the assay with TM5 (CaCdr1p V674F) (Saccharomyces cerevisiae, pH 7) it was 1 µg/mL.

On to `C=CC[C@@H]1/C=C(\C)C[C@H](C)C[C@H](OC)[C@H]2O[C@@](O)(C(=O)C(=O)N3CCCC[C@H]3C(=O)O[C@H](/C(C)=C/[C@@H]3CC[C@@H](O)[C@H](OC)C3)[C@H](C)[C@@H](O)CC1=O)[C@H](C)C[C@@H]2OC` [FK506], for which the minimum inhibitory concentration (MIC) against AD/pABC3 (Control) (Saccharomyces cerevisiae, pH 7) is 0.313 µg/mL; in assay [1] (Saccharomyces cerevisiae, pH 7), 40 µg/mL; in the assay on EL1/TM2 (CaCdr1p G547R) (Saccharomyces cerevisiae, pH 7), 40 µg/mL; in the assay with EL3 (CaCdr1p Q714K) (Saccharomyces cerevisiae, pH 7) it was 40 µg/mL; with EL4-1 (CaCdr1p Q1226K) (Saccharomyces cerevisiae, pH 7), 40 µg/mL; with EL4-2 (CaCdr1p Q1226R) (Saccharomyces cerevisiae, pH 7) it was 40 µg/mL. Besides, the MIC is 40 µg/mL in the assay with EL6 (CaCdr1p Q1445R) (Saccharomyces cerevisiae, pH 7) and 40 µg/mL with TM5 (CaCdr1p V674F) (Saccharomyces cerevisiae, pH 7).

As to `OC(Cn1cncn1)(Cn1cncn1)c1ccc(F)cc1F` [Fluconazole], the minimal inhibitory concentration (MIC) against AD/pABC3 (Control) (Saccharomyces cerevisiae, pH 7) amounted to 0.5 µg/mL; in assay [1] (Saccharomyces cerevisiae, pH 7), 240 µg/mL; against EL1/TM2 (CaCdr1p G547R) (Saccharomyces cerevisiae, pH 7), 100 µg/mL; in the assay with EL3 (CaCdr1p Q714K) (Saccharomyces cerevisiae, pH 7), 240 µg/mL; against EL4-1 (CaCdr1p Q1226K) (Saccharomyces cerevisiae, pH 7) it was 80 µg/mL; against EL4-2 (CaCdr1p Q1226R) (Saccharomyces cerevisiae, pH 7), 240 µg/mL. Also, the MIC was 240 µg/mL against EL6 (CaCdr1p Q1445R) (Saccharomyces cerevisiae, pH 7) and 160 µg/mL in the assay with TM5 (CaCdr1p V674F) (Saccharomyces cerevisiae, pH 7).

Regarding `CC(=O)N1CCN(c2ccc(OCC3COC(Cn4ccnc4)(c4ccc(Cl)cc4Cl)O3)cc2)CC1` (stereo not drawn) [Ketoconazole], the MIC in the assay on AD/pABC3 (Control) (Saccharomyces cerevisiae, pH 7) was determined as 0.156 µg/mL; in assay [1] (Saccharomyces cerevisiae, pH 7), 4 µg/mL; in the assay with EL1/TM2 (CaCdr1p G547R) (Saccharomyces cerevisiae, pH 7) it was 1 µg/mL; against EL3 (CaCdr1p Q714K) (Saccharomyces cerevisiae, pH 7), 4 µg/mL; in the assay on EL4-1 (CaCdr1p Q1226K) (Saccharomyces cerevisiae, pH 7), 1 µg/mL; in the assay on EL4-2 (CaCdr1p Q1226R) (Saccharomyces cerevisiae, pH 7), 4 µg/mL. Also, the MIC in the assay with EL6 (CaCdr1p Q1445R) (Saccharomyces cerevisiae, pH 7) came out at 4 µg/mL; in the assay on TM5 (CaCdr1p V674F) (Saccharomyces cerevisiae, pH 7) it was 3 µg/mL.

For the compound `CCCCCOc1ccc(-c2cc(-c3ccc(C(=O)N[C@H]4C[C@@H](O)[C@@H](O)NC(=O)[C@@H]5[C@@H](O)[C@@H](C)CN5C(=O)[C@H]([C@H](O)CC(N)=O)NC(=O)[C@H]([C@H](O)[C@@H](O)c5ccc(O)c(OS(=O)(=O)O)c5)NC(=O)[C@@H]5C[C@@H](O)CN5C(=O)[C@H]([C@@H](C)O)NC4=O)cc3)no2)cc1` [Micafungin] (X1-[Orn(4R-OH,5R-OH)]T[Hyp][hTyr(3S-OH,4S-OH,3'-OSO3H)][Gln(3R-OH)][Pro(3S-OH,4S-Me)]; lactam 1-C), the MIC was found to be 0.25 µg/mL in the assay on AD/pABC3 (Control) (Saccharomyces cerevisiae, pH 7); 0.125 µg/mL in assay [1] (Saccharomyces cerevisiae, pH 7); 0.125 µg/mL in the assay on EL1/TM2 (CaCdr1p G547R) (Saccharomyces cerevisiae, pH 7); 0.125 µg/mL in the assay on EL4-1 (CaCdr1p Q1226K) (Saccharomyces cerevisiae, pH 7); 0.125 µg/mL in the assay with EL4-2 (CaCdr1p Q1226R) (Saccharomyces cerevisiae, pH 7); 0.125 µg/mL in the assay on TM5 (CaCdr1p V674F) (Saccharomyces cerevisiae, pH 7).

`Clc1ccc(COC(Cn2ccnc2)c2ccc(Cl)cc2Cl)c(Cl)c1` (stereo not drawn) [Miconazole]: the MIC against AD/pABC3 (Control) (Saccharomyces cerevisiae, pH 7) is 0.156 µg/mL; in assay [1] (Saccharomyces cerevisiae, pH 7), 2.5 µg/mL; with EL1/TM2 (CaCdr1p G547R) (Saccharomyces cerevisiae, pH 7), 1 µg/mL; against EL3 (CaCdr1p Q714K) (Saccharomyces cerevisiae, pH 7) it was 2.5 µg/mL; in the assay with EL4-1 (CaCdr1p Q1226K) (Saccharomyces cerevisiae, pH 7) it was 1 µg/mL; in the assay on EL4-2 (CaCdr1p Q1226R) (Saccharomyces cerevisiae, pH 7), 3 µg/mL. For the same compound, the MIC in the assay with EL6 (CaCdr1p Q1445R) (Saccharomyces cerevisiae, pH 7) worked out at 3 µg/mL; with TM5 (CaCdr1p V674F) (Saccharomyces cerevisiae, pH 7) it was 2 µg/mL.

`CC(C)=CC(=O)OCC1=C[C@H]2C(=O)O[C@H]3C[C@@H](C/C=C(\C)C[C@@H](C)/C=C/C=C4\CO[C@H]([C@@H]1O)[C@@]42O)O[C@@]1(CC[C@H](C)[C@@H](C)O1)C3` [Milbemycin α11]: the MIC in the assay with AD/pABC3 (Control) (setting [2]) was 4 µg/mL; in assay [1] (setting [3]) it was 4 µg/mL; in the assay with EL1/TM2 (CaCdr1p G547R) (setting [4]), 8 µg/mL; against EL3 (CaCdr1p Q714K) (setting [5]), 4 µg/mL; with EL4-1 (CaCdr1p Q1226K) (setting [6]), 8 µg/mL; against EL4-2 (CaCdr1p Q1226R) (setting [7]), 4 µg/mL. Besides, the MIC against EL6 (CaCdr1p Q1445R) (setting [8]) was 4 µg/mL; in the assay on TM5 (CaCdr1p V674F) (setting [9]), >8 µg/mL.

On to `C/C=C(\C)C(=O)OCC1=C[C@H]2C(=O)O[C@H]3C[C@@H](C/C=C(\C)C[C@@H](C)/C=C/C=C4\CO[C@H]([C@@H]1O)[C@@]42O)O[C@@]1(CC[C@H](C)[C@@H](C)O1)C3` [Milbemycin α20], for which the MIC (against AD/pABC3 (Control) (setting [2]); in assay [1] (setting [3]); in the assay on EL1/TM2 (CaCdr1p G547R) (setting [4]); against EL3 (CaCdr1p Q714K) (setting [5]); against EL4-1 (CaCdr1p Q1226K) (setting [6]); against EL4-2 (CaCdr1p Q1226R) (setting [7])) was >8 µg/mL each time. Also, the MIC in the assay with EL6 (CaCdr1p Q1445R) (setting [8]) and in the assay on TM5 (CaCdr1p V674F) (setting [9]) was >8 µg/mL throughout.

As for `CC1=C[C@H]2C(=O)O[C@H]3C[C@@H](C/C=C(\C)C[C@@H](C)/C=C/C=C(\C)[C@]2(O)[C@H](O)[C@@H]1O)O[C@@]1(CC[C@H](C)[C@@H](C)O1)C3` [Milbemycin β11], the MIC (in the assay on AD/pABC3 (Control) (setting [2]); in assay [1] (setting [3]); against EL1/TM2 (CaCdr1p G547R) (setting [4]); with EL3 (CaCdr1p Q714K) (setting [5]); in the assay on EL4-1 (CaCdr1p Q1226K) (setting [6]); in the assay on EL4-2 (CaCdr1p Q1226R) (setting [7])) was >8 µg/mL in each case. For the same compound, the MIC against EL6 (CaCdr1p Q1445R) (setting [8]) and in the assay with TM5 (CaCdr1p V674F) (setting [9]) was >8 µg/mL in each case.

For `CC/N=c1\cc2oc3cc(NCC)c(C)cc3c(-c3ccccc3C(=O)OCC)c-2cc1C` [Rhodamine 6G], the MIC was 1 µM against AD/pABC3 (Control) (Saccharomyces cerevisiae, pH 7); 75 µM in assay [1] (Saccharomyces cerevisiae, pH 7); 50 µM in the assay on EL1/TM2 (CaCdr1p G547R) (Saccharomyces cerevisiae, pH 7); 75 µM in the assay with EL3 (CaCdr1p Q714K) (Saccharomyces cerevisiae, pH 7); 50 µM in the assay on EL4-1 (CaCdr1p Q1226K) (Saccharomyces cerevisiae, pH 7); 50 µM with EL4-2 (CaCdr1p Q1226R) (Saccharomyces cerevisiae, pH 7). The minimal inhibitory concentration (MIC) with EL6 (CaCdr1p Q1445R) (Saccharomyces cerevisiae, pH 7) worked out at 75 µM; against TM5 (CaCdr1p V674F) (Saccharomyces cerevisiae, pH 7), 50 µM.
